We go through ten compounds from ChEMBL document CHEMBL1201862, “PubChem BioAssay data set” (2004).

Among the test systems are SF-539; RPMI-8226; U-251; UACC-257; NCI-H226; CCRF-CEM; UACC-62; CAKI-1; SNB-75; SW-620; HT-29; NCI-H522; Malme-3M; PC-3; SR; SK-OV-3; DU-145; NCI-H460; SK-MEL-28; OVCAR-5.
Common to all, as to assay: NCI tumour cell line growth inhibition, 48 h

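Compound exposure: 48 hours, 5 concentrations, 96-well plates. Abbreviation: GI50, concentration required for 50% inhibition of growth.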 Calls of active or inactive are those of the source. No stated cut-off is given here; in the data, active = GI50 up to about 1.1 µM and inactive = higher. Some results are limits rather than exact numbers.

For the compound `CCN(CC)CCCn1c(=O)c2ccccc2n2c3c(=O)n(C)c(=O)n(C)c3nc12`, the GI50 in the experiment on SF-539 was 7.73 µM (inactive); in the experiment on RPMI-8226, 4.66 µM (inactive); in the experiment on U-251, 3.03 µM (inactive); in the experiment on UACC-257, 10.9 µM (inactive); in the experiment on NCI-H226, 2.7 µM (inactive); in the experiment on CCRF-CEM, 3.03 µM (inactive). The GI50 in the experiment with UACC-62 is 4.3 µM (inactive); in the experiment with CAKI-1 it was 1.43 µM (inactive); with SNB-75, 5.92 µM (inactive); in the experiment with SW-620, 3.42 µM (inactive); in the experiment on HT-29 it was 6.56 µM (inactive); in the experiment with NCI-H522, 5.74 µM (inactive). Besides, the GI50 was 8.99 µM (inactive) in the experiment with Malme-3M; 8.39 µM (inactive) in the experiment with PC-3; 0.394 µM (active) in the experiment on SR; 3.37 µM (inactive) in the experiment with SK-OV-3; 1.57 µM (inactive) in the experiment on DU-145; 0.355 µM (active) in the experiment with NCI-H460. Further, the values for the GI50 in the experiment on SK-MEL-28 and with OVCAR-5 were 15.7 µM (inactive) and 12.1 µM (inactive), respectively.

For the compound `Cc1cccc2nc3cccc(C(=O)NCCC[N+](C)(CCCNC(=O)c4cccc5nc6cccc(C)c6nc45)Cc4c([N+](=O)[O-])ncn4C)c3nc12`, the GI50 in the experiment with SF-539 is 0.41 µM (active); in the experiment on RPMI-8226, 0.0436 µM (active); with U-251, 0.377 µM (active); in the experiment on UACC-257 it was 5.22 µM (inactive); in the experiment with NCI-H226, 0.787 µM (active); in the experiment with CCRF-CEM, 47 µM (inactive). For the same compound, the GI50 is 0.853 µM (active) with UACC-62; 0.659 µM (active) in the experiment on CAKI-1; 233 µM (inactive) in the experiment with SNB-75; 0.143 µM (active) in the experiment with SW-620; 0.187 µM (active) with HT-29; 2.1 µM (inactive) with NCI-H522. The GI50 is 3.05 µM (inactive) in the experiment on Malme-3M; 1.46 µM (inactive) in the experiment on PC-3; 12.6 µM (inactive) in the experiment on SR; 44.8 µM (inactive) in the experiment on SK-OV-3; 0.881 µM (active) with DU-145; 0.0632 µM (active) in the experiment with NCI-H460. Further, the GI50 with SK-MEL-28 is 1.07 µM (active); in the experiment with OVCAR-5, 1.91 µM (inactive).

For `CC(CCCC1SCC2NC(=O)NC21)C(=O)O` (stereo unspecified), the GI50 in the experiment on SF-539, in the experiment with RPMI-8226, in the experiment on U-251, with NCI-H226, in the experiment with UACC-62 and with CAKI-1 was > 100 µM (inactive) in each case. The GI50 with SNB-75, in the experiment on SW-620, with HT-29, in the experiment with NCI-H522, in the experiment on Malme-3M and in the experiment with PC-3 was > 100 µM (inactive) in each case. The GI50 with SR, in the experiment with SK-OV-3, with DU-145, in the experiment on NCI-H460, in the experiment on SK-MEL-28 and in the experiment on OVCAR-5 was > 100 µM (inactive) throughout.

Regarding `CCOC(=O)/C=C(/C(=O)OCC)n1ccc(=O)n(Cc2cn(CCCCOC(C)=O)nn2)c1=O`, the GI50 is > 100 µM (inactive) with SF-539; 89.3 µM (inactive) with RPMI-8226; > 100 µM (inactive) with U-251; > 100 µM (inactive) with UACC-257; 32.9 µM (inactive) with NCI-H226; 16.2 µM (inactive) in the experiment on CCRF-CEM. For the same compound, the GI50 was > 100 µM (inactive) with UACC-62; 23.3 µM (inactive) with CAKI-1; > 100 µM (inactive) in the experiment on SNB-75; 32.7 µM (inactive) in the experiment on SW-620; > 100 µM (inactive) with HT-29; 13.6 µM (inactive) in the experiment on NCI-H522. The GI50 in the experiment on PC-3, with SR, with SK-OV-3, in the experiment on DU-145, in the experiment with NCI-H460 and in the experiment on SK-MEL-28 was > 100 µM (inactive) each time. Moreover, the GI50 in the experiment with OVCAR-5 is > 100 µM (inactive).

Regarding `CO/C=C(/C(=O)OC)c1ccccc1COc1cccc(C(F)(F)F)c1`, the GI50 is 4.97 µM (inactive) in the experiment on SF-539; 0.408 µM (active) in the experiment with RPMI-8226; 3.22 µM (inactive) in the experiment on U-251; 0.676 µM (active) in the experiment on UACC-257; 1.89 µM (inactive) in the experiment with NCI-H226; 0.489 µM (active) in the experiment with CCRF-CEM. The GI50 in the experiment with UACC-62 was 0.638 µM (active); in the experiment on CAKI-1, 4.84 µM (inactive); with SNB-75, 7.01 µM (inactive); in the experiment on HT-29, 4.14 µM (inactive); in the experiment on NCI-H522, 0.526 µM (active); in the experiment with Malme-3M, 1.41 µM (inactive). In addition, the GI50 in the experiment with PC-3 was 7.43 µM (inactive); in the experiment on SR it was 0.646 µM (active); in the experiment with SK-OV-3 it was 27.9 µM (inactive); in the experiment on DU-145 it was 11.6 µM (inactive); with NCI-H460 it was 1.22 µM (inactive); in the experiment with SK-MEL-28, 22.6 µM (inactive). The GI50 in the experiment on OVCAR-5 was > 100 µM (inactive).

For `CN(C)c1ccc(C(=NNC(=O)c2cc3ccccc3[nH]2)c2ccc(N(C)C)cc2)cc1`, the GI50 was 0.573 µM (active) with SF-539; 0.321 µM (active) with RPMI-8226; 0.348 µM (active) in the experiment with U-251; 4.04 µM (inactive) in the experiment with UACC-257; 35.8 µM (inactive) in the experiment on NCI-H226; 0.326 µM (active) with CCRF-CEM. In addition, the GI50 with UACC-62 was 0.409 µM (active); in the experiment with CAKI-1, 0.971 µM (active); in the experiment on SNB-75, 0.632 µM (active); in the experiment on SW-620 it was 0.299 µM (active); in the experiment with HT-29, 0.195 µM (active); in the experiment on NCI-H522 it was 0.275 µM (active). Moreover, the GI50 in the experiment on PC-3 was 0.598 µM (active); with SR, < 0.033 µM (active); in the experiment on SK-OV-3, 1.62 µM (inactive); in the experiment on DU-145, 1.39 µM (inactive); in the experiment with NCI-H460, 0.348 µM (active); in the experiment with OVCAR-5, 0.94 µM (active).

As for `COc1cc(CNc2nc3ccccc3nc2C(=O)O)cc(OC)c1OC`, the GI50 with SF-539, with RPMI-8226, in the experiment with U-251, in the experiment with UACC-257, in the experiment on NCI-H226 and in the experiment on CCRF-CEM was > 100 µM (inactive) each time. In addition, the GI50 in the experiment with UACC-62 was 74 µM (inactive); in the experiment on CAKI-1, > 100 µM (inactive); with SNB-75, 76.7 µM (inactive); with SW-620 it was > 100 µM (inactive); in the experiment with HT-29, > 100 µM (inactive); in the experiment with NCI-H522, 71.9 µM (inactive). Moreover, the GI50 in the experiment on Malme-3M was > 100 µM (inactive); in the experiment on PC-3 it was > 100 µM (inactive); with SR it was 99.1 µM (inactive); in the experiment with SK-OV-3 it was 69.8 µM (inactive); with DU-145, > 100 µM (inactive); in the experiment on NCI-H460 it was 94 µM (inactive). Besides, the GI50 in the experiment on SK-MEL-28 and in the experiment on OVCAR-5 was > 100 µM (inactive) each time.

As for `N#Cc1nc(CN2C(=O)c3ccccc3C2=O)oc1N`, the GI50 with SF-539, in the experiment on RPMI-8226, with U-251, in the experiment with UACC-257, in the experiment with NCI-H226 and in the experiment on CCRF-CEM was > 100 µM (inactive) in each case. Also, the GI50 with CAKI-1, in the experiment on SNB-75, with SW-620, in the experiment on HT-29, with NCI-H522 and in the experiment on Malme-3M was > 100 µM (inactive) throughout. For the same compound, the GI50 with PC-3, with SR, with SK-OV-3, in the experiment with DU-145, with NCI-H460 and with SK-MEL-28 was > 100 µM (inactive) in each case. The GI50 in the experiment with OVCAR-5 was > 100 µM (inactive).

Regarding `Cc1cc(N(CCC#N)CCC#N)ccc1C(/N=N/c1ccc(C(=O)O)cc1)=N\NC(=O)c1ccccc1`, the GI50 in the experiment on SF-539 was 16.3 µM (inactive); in the experiment on RPMI-8226, > 100 µM (inactive); in the experiment with U-251, 34.8 µM (inactive); in the experiment on UACC-257 it was 65.2 µM (inactive); in the experiment with NCI-H226 it was 40.9 µM (inactive); with CCRF-CEM, 30.4 µM (inactive). The GI50 with UACC-62 is 39.8 µM (inactive); in the experiment on CAKI-1, > 100 µM (inactive); in the experiment on SNB-75, 34.3 µM (inactive); in the experiment with HT-29, 17.3 µM (inactive); in the experiment with NCI-H522, 13.2 µM (inactive); in the experiment with Malme-3M, 22.5 µM (inactive). Moreover, the GI50 in the experiment with PC-3 is 26.1 µM (inactive); in the experiment with SR, 6.08 µM (inactive); in the experiment on SK-OV-3, 49.2 µM (inactive); in the experiment with DU-145 it was 71.4 µM (inactive); in the experiment on NCI-H460, 22.9 µM (inactive); in the experiment on OVCAR-5 it was > 100 µM (inactive).

As for `O=Cc1cc2c(o1)C(=O)c1ccccc1C2=O`, the GI50 was 0.427 µM (active) in the experiment with SF-539; 1.82 µM (inactive) in the experiment on RPMI-8226; 0.851 µM (active) with U-251; 0.569 µM (active) in the experiment on UACC-257; 1.07 µM (active) with NCI-H226; 2.09 µM (inactive) with CCRF-CEM. The GI50 is 1.78 µM (inactive) in the experiment with UACC-62; 2.84 µM (inactive) in the experiment with CAKI-1; 0.434 µM (active) in the experiment on SNB-75; 0.318 µM (active) with SW-620; 0.581 µM (active) in the experiment with HT-29; 1.48 µM (inactive) in the experiment on NCI-H522. In addition, the GI50 with Malme-3M was 0.153 µM (active); with PC-3, 2.53 µM (inactive); in the experiment with SR it was 0.459 µM (active); with SK-OV-3 it was 2.85 µM (inactive); in the experiment on DU-145, 0.212 µM (active); with NCI-H460, 0.794 µM (active). Further, the GI50 in the experiment on SK-MEL-28 was 0.405 µM (active); in the experiment on OVCAR-5 it was 1.77 µM (inactive).
